Data published in patent US10760052B2, “Method of inhibiting tau phosphorylation” (priority 2012, dated 2020).
Where two headings read alike, the source gives them in different places.

Molecular target: T1, mu opiate receptor (MOR) (Rattus norvegicus, UniProt P33535)
T1 construct: from tissue; host or cells: striatum (membrane preparation)
Type: biochemical
Conditions: for [35S]GTPγS binding, FLNA-Binding Compound as Agonist at 0.1 μM: 0.1 μM compound; for [35S]GTPγS binding, FLNA-Binding Compound as Agonist at 0.1 μM / [35S]GTPγS binding, FLNA-Binding Compound as Agonist at 1 μM: striatal membranes; for [35S]GTPγS binding, FLNA-Binding Compound as Agonist at 0.1 μM / [35S]GTPγS binding, FLNA-Binding Compound as Agonist at 1 μM + BFNA / [35S]GTPγS binding, FLNA-Binding Compound as Agonist at 1 μM: Series C-2; for [35S]GTPγS binding, FLNA-Binding Compound as Agonist at 1 μM + BFNA: 1 μM compound + 1 μM β-FNA (selective MOR antagonist); for [35S]GTPγS binding, FLNA-Binding Compound as Agonist at 1 μM: 1 μM compound

[1] = [35S]GTPγS binding to Gαo in striatal membranes, compound 0.1 μM
[2] = [35S]GTPγS binding to Gαo in striatal membranes, compound 1 μM
[3] = [35S]GTPγS binding to Gαo in striatal membranes, compound 1 μM plus 1 μM β-funaltrexamine (MOR antagonist)

T1 sequence (P33535 whole entry): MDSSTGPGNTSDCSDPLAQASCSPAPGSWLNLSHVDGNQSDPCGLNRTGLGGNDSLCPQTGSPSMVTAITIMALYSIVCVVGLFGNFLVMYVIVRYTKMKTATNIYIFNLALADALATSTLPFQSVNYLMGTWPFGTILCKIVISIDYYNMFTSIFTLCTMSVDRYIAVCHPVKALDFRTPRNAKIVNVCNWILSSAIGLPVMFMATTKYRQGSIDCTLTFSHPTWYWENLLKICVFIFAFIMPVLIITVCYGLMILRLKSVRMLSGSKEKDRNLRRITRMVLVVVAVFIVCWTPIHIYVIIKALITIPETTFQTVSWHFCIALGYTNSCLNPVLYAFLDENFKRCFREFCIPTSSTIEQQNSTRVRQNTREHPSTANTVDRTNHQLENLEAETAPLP

Row | Compound | % DAMGO (0.1 μM) | % DAMGO (1 μM) | % DAMGO + BFNA | Concentration of FLNA-Binding Compound as Agonist 0.1 μM [1] | Concentration of FLNA-Binding Compound as Agonist 1 μM [2] | Concentration of FLNA-Binding Compound as Agonist 1 μM + BFNA [3] | [35S]GTPγS binding, FLNA-Binding Compound as Agonist at 0.1 μM | [35S]GTPγS binding, FLNA-Binding Compound as Agonist at 1 μM + BFNA | [35S]GTPγS binding, FLNA-Binding Compound as Agonist at 1 μM | Concentration of FLNA-Binding Compound as Agonist 0.1 μM | Concentration of FLNA-Binding Compound as Agonist 1 μM | Concentration of FLNA-Binding Compound as Agonist 1 μM + BFNA
1 | COc1c2c(cc3c1C(CC(=O)CCc1ccc(F)cc1)[N+](C)(C)CC3)OCO2 (stereo not drawn) [Compound B0018] | 70.3% | 53.5% | 69.1% | 118.8% | 143.0% | 45.6% | – | – | – | – | – | –
2 | COc1ccc(CCCCC2c3c(cc4c(c3OC)OCO4)CC[N+]2(C)C)cc1 (stereo not drawn) [Compound B0056] | 98.9% | 113.6% | 158.9% | 174.7% | 288.8% | 41.8% | – | – | – | – | – | –
3 | O=C1CN(Cc2ccccc2)C2(CCN(C3CCCCC3)CC2)N1 [C0137M (P7)] | 95.6% | 78.1% | 115.1% | – | – | – | 180.8% | 55.8% | 193.8% | – | – | –
4 | CC1CN(CC(O)COc2ccccc2)CC(C)O1 (stereo not drawn) [Compound A0025] | 33.2% | 54.5% | 198.5% | 58.6% | 138.7% | 52.2% | – | – | – | – | – | –
5 | CC(=O)c1ccc(S(=O)(=O)N2CCOC23CCN(C)CC3)cc1 [Compound C0093M] | 81.3% | 96.4% | 127.5% | – | – | – | 140.0% | 44.0% | 211.8% | – | – | –
6 | CC(=O)c1ccc(S(=O)(=O)N2CCC3(CC2)NC(=O)CN3S(=O)(=O)c2ccc(C(C)=O)cc2)cc1 [Compound C0064] | 124.2% | 159.1% | 110.4% | 213.8% | 349.6% | 38.1% | – | – | – | – | – | –
7 | COc1c2c(cc3c1C(CC(=O)c1ccc(O)c(C)c1)[N+](C)(C)CC3)OCO2 (stereo not drawn) [Compound B0002] | 100.0% | 81.1% | 156.0% | 165.7% | 219.0% | 101.4% | – | – | – | – | – | –
8 | CC1CCC(C(C)C)C(OCC(O)CN2CCSCC2)C1 (stereo not drawn) [Compound A0003] | 118.3% | 119.9% | 64.5% | – | – | – | – | – | – | 176.8% | 276.0% | 17.1%
9 | COc1ccc(OCC(O)CN2CCc3ccccc3C2)cc1 (stereo not drawn) [Compound A0053] | 46.5% | 47.5% | 46.2% | 78.5% | 118.2% | 15.1% | – | – | – | – | – | –
10 | Cc1cccc(OCC(O)CN2CC(C)OC(C)C2)c1 (stereo not drawn) [Compound A0030] | 75.5% | 113.2% | 628.1% | 133.4% | 287.8% | 165.2% | – | – | – | – | – | –
11 | OC(COc1ccc(Br)c(F)c1)CN1CCCCC1 (stereo not drawn) [Compound A0058] | 45.3% | 106.0% | 150.1% | 70.7% | 244.3% | 59.9% | – | – | – | – | – | –
12 | CC(=O)c1ccc(S(=O)(=O)N2CCC3(CC2)OCC(CCCCN(C)C)N3S(=O)(=O)c2ccc(C(C)=O)cc2)cc1 (stereo not drawn) [Compound C0080M] | 112.1% | 92.4% | 351.8% | 187.9% | 205.4% | 167.1% | – | – | – | – | – | –
13 | O=[N+]([O-])c1ccc(S(=O)(=O)N2CCC3(CC2)NCCO3)cc1 [Compound C0040] | 93.1% | 133.2% | 277.3% | – | – | – | 145.8% | 90.4% | 308.3% | – | – | –
14 | COc1c2c(cc3c1C(CC(O)CCc1ccccc1)[N+](C)(C)CC3)OCO2 (stereo not drawn) [Compound B0052] | 58.1% | 69.3% | 246.4% | 98.2% | 151.7% | 40.9% | – | – | – | – | – | –
15 | CC(=O)c1ccc(S(=O)(=O)N2CCOC23CCN(CC(=O)O)CC3)cc1 [Compound C0100M] | 103.6% | 110.6% | 411.8% | – | – | – | 173.6% | 195.6% | 245.9% | – | – | –
16 | O=C1CN(Cc2ccccc2)C2(CCN(CC3CC3)CC2)N1 [Compound C0125M] | 89.1% | 78.6% | 329.3% | – | – | – | 168.6% | 159.7% | 195.2% | – | – | –
17 | N#Cc1ccccc1S(=O)(=O)N1CCC2(CC1)OCCN2S(=O)(=O)c1ccccc1C#N [Compound C0004] | 72.1% | 85.4% | 99.7% | 122.0% | 228.4% | 65.8% | – | – | – | – | – | –
18 | CC1CCC(C(C)C)C(OCC(O)CN2CCN(C)CC2)C1 (stereo not drawn) [Compound A0009] | 39.8% | 48.7% | 142.9% | 70.2% | 126.4% | 93.9% | – | – | – | – | – | –
19 | CC1CN(CC(O)COc2ccc(Br)c(Cl)c2)CC(C)O1 (stereo not drawn) [Compound A0045] | 73.3% | 99.3% | 134.2% | 143.9% | 274.2% | 99.2% | – | – | – | – | – | –
20 | CC1CCC(C(C)C)C(OCC(O)CN2CCCc3ccccc32)C1 (stereo not drawn) [Compound A0068] | 36.8% | 35.2% | 182.0% | 73.9% | 110.4% | 98.1% | – | – | – | – | – | –
21 | CC(=O)c1ccc(S(=O)(=O)N2CC(CN(C)C)OC23CCN(C)CC3)cc1 (stereo not drawn) [Compound C0108M] | 108.7% | 104.1% | 158.6% | – | – | – | 205.6% | 76.9% | 258.5% | – | – | –
22 | CC(=O)c1ccc(S(=O)(=O)N2CCC3(CC2)NC(=O)C(Cc2cnc[nH]2)N3S(=O)(=O)c2ccc(C(C)=O)cc2)cc1 (stereo not drawn) [Compound C0084M] | 97.3% | 114.9% | 280.4% | 163.1% | 255.5% | 133.2% | – | – | – | – | – | –
23 | CN1CCC2(CC1)OCCN2S(=O)(=O)c1ccc(S(C)(=O)=O)cc1 [Compound C0106M] | 102.5% | 108.3% | 246.7% | – | – | – | 171.8% | 117.2% | 240.7% | – | – | –
24 | CC1CCC(C(C)C)C(OCC(O)CN2CCN(CCCN3CCOCC3)CC2)C1 (stereo not drawn) [Compound A0026] | 79.7% | 70.7% | 459.3% | 140.7% | 179.8% | 120.8% | – | – | – | – | – | –
25 | COc1ccc(C(=O)N2CCC3(CC2)OCCN3S(=O)(=O)c2ccc(OC)cc2)cc1 [Compound C0018] | 110.7% | 95.5% | 162.1% | 195.5% | 247.7% | 106.5% | – | – | – | – | – | –
26 | CC1CN(CC(O)COc2ccccc2C(C)C)CC(C)O1 (stereo not drawn) [Compound A0029] | 98.4% | 81.2% | 84.8% | 173.8% | 206.5% | 22.3% | – | – | – | – | – | –
27 | COc1ccc(CCC(=O)CC2c3c(cc4c(c3OC)OCO4)CCN2C)cc1 (stereo not drawn) [Compound B0047] | 106.3% | 92.6% | 260.1% | 187.8% | 235.6% | 68.4% | – | – | – | – | – | –
